For this assay, the target named is T1, mitochondrial DNA primase (LdmtPRI1) (Leishmania donovani, UniProt A0A3S7WXR7).
T1 construct: gene LdCL_230015100; recombinant histidine-tagged LdmtPRI1 (pET28a), purified from E. coli BL21
T1 sequence (A0A3S7WXR7 1-533): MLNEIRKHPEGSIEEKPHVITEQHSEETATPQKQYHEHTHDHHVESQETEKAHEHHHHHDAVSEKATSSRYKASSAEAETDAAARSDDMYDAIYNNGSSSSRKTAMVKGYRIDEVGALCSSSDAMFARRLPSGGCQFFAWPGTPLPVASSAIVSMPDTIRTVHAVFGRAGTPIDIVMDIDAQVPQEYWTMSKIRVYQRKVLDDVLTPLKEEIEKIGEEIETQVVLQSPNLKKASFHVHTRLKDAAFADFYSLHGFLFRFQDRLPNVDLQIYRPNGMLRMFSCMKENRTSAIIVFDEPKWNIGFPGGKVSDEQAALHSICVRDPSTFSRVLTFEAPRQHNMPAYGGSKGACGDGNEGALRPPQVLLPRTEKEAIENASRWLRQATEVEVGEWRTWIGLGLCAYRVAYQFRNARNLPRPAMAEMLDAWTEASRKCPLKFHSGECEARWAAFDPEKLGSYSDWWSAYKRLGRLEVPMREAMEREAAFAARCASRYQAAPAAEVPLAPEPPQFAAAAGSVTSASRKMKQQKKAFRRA
Briefly: coupled primase-pyrophosphatase malachite green assay, purified enzyme. Type of assay: biochemical.

This note sets out measurements from publication PMC10853515, “Identification of potential inhibitor against Leishmania donovani mitochondrial DNA primase through in-silico and in vitro drug repurposing approaches” (Scientific Reports, 2024).

Take `C/C(=C(\CCOP(=O)(O)O)SC(=O)c1ccccc1)N(C=O)Cc1cnc(C)nc1N` [benfotiamine]: the IC50 – broadly, the point on the concentration scale where inhibition reaches its midpoint – worked out at 20.68 ± 0.03 nM.

`CCCCCOC(=O)Nc1nc(=O)n([C@@H]2O[C@H](C)[C@@H](O)[C@H]2O)cc1F` [capecitabine] came in with an IC50 of 15.27 ± 0.03 nM.
